Test results published in ChEMBL document CHEMBL2062393, “Drugs for stroke: action of nitrone (Z)-N-(2-bromo-5-hydroxy-4-methoxybenzylidene)-2-methylpropan-2-amine oxide on rat cortical neurons in culture subjected to oxygen-glucose-deprivation” (Eur J Med Chem, 2012).
Active and inactive are the calls of the source. The rule behind the calls is not given here.

Tests used:
Format in all cases: functional
Cortical neurone [1] = assay: Neuroprotective activity against Wistar rat Cortical neurons assessed as reduction of oxygen-glucose-deprivation-induced lipid peroxidation at 100 uM treated during reperfusion measured after 24 hrs by TBARS method
Cortical neurone [2] = assay: Neuroprotective activity against Wistar rat Cortical neurons assessed as reduction of oxygen-glucose-deprivation-induced cell death at 1 to 10 uM treated during reperfusion measured after 24 hrs by XTT assay
Cortical neurone [3] = assay: Neuroprotective activity against Wistar rat Cortical neurons assessed as reduction of oxygen-glucose-deprivation-induced mitochondrial membrane potential at 1 to 100 uM treated during reperfusion measured after 24 hrs by spectrofluorometer analysis
Cortical neurone [4] = assay: Neuroprotective activity against Wistar rat Cortical neurons assessed as reduction of oxygen-glucose-deprivation-induced LDH release at 1 to 100 uM treated during reperfusion measured after 24 hrs
Cortical neurone [5] = assay: Neuroprotective activity against Wistar rat Cortical neurons assessed as reduction of oxygen-glucose-deprivation-induced lipid peroxidation at 1 uM treated during reperfusion measured after 24 hrs by TBARS method
Cortical neurone [6] = assay: Neuroprotective activity against Wistar rat Cortical neurons assessed as reduction of oxygen-glucose-deprivation-induced ROS production at 1 uM treated during reperfusion measured after 24 hrs by H2DCF-DA assay
Cortical neurone [7] = assay: Neuroprotective activity against Wistar rat Cortical neurons assessed as reduction of oxygen-glucose-deprivation-induced cell death at 100 uM treated during reperfusion measured after 24 hrs by XTT assay
Cortical neurone [8] = assay: Neuroprotective activity against Wistar rat Cortical neurons assessed as reduction of oxygen-glucose-deprivation-induced caspase-3 activity at 1 to 100 uM treated during reperfusion measured after 24 hrs by spectrofluorometer analysis

Activity (Cortical neurone [8]): Active
Structure (SMILES): COc1cc(Br)c(/C=[N+](\[O-])C(C)(C)C)cc1O
Activity (Cortical neurone [1]): inactive | Activity (Cortical neurone [2]): inactive | Activity (Cortical neurone [3]): inactive | Activity (Cortical neurone [4]): Active | Activity (Cortical neurone [5]): Active | Activity (Cortical neurone [6]): Active | Activity (Cortical neurone [7]): Active
